The values below come from paper PMC2009657, “Mammalian cell transformation in vitro. Six tests for carcinogenicity” (British Journal of Cancer, 1978).

Tested on in one series: not given
As to conditions: in vivo; cited from earlier work.
For `Cc1ccc(O)c(N=Nc2c(O)cc(S(=O)(=O)O)c3ccccc23)c1` [Calmagite], the “Carcinogenicity, Lit.” value was “-”.

On to `NN` [Hydrazine], for which the “Carcinogenicity, Lit.” value is reported as “+”.

With `Nc1ccccc1C(=O)O` [Anthranilic acid], the “Carcinogenicity, Lit.” value is reported as “-”.

`c1ccc2cc3ccccc3cc2c1` [Anthracene]: the “Carcinogenicity, Lit.” value is “-”.

`CC(C(O)c1ccccc1)N(C)N=O` (stereo not shown) [N-Nitrosoephedrine]: the “Carcinogenicity, Lit.” value is given as “+”.

Consider `O=[N+]([O-])c1ccc(F)c([N+](=O)[O-])c1` [2,4-Dinitrofluorobenzene], for which the “Carcinogenicity, Lit.” value is recorded as “+”.

Take `Nc1ccc2ccccc2c1` [2-Naphthylamine]: the “Carcinogenicity, Lit.” value is given as “+”.

In the case of Cyanocobalamin [Cyanocobalamin (B12)], the “Carcinogenicity, Lit.” value was “-”.

As to `ClC1=C(Cl)[C@]2(Cl)[C@@H]3[C@@H]4C[C@@H]([C@H]5O[C@@H]45)[C@@H]3[C@@]1(Cl)C2(Cl)Cl` [Dieldrin], the “Carcinogenicity, Lit.” value is “-”.

Regarding `O=P1(N(CCCl)CCCl)NCCCO1` (stereo not shown) [Cyclophosphamide], the “Carcinogenicity, Lit.” value is “+”.

With `O=C1c2ccccc2-c2cccc3cccc1c23` [Benzathrone], the “Carcinogenicity, Lit.” value is listed as “-”.

Regarding `Cc1ccc2cc3c(ccc4ccccc43)c3c2c1CC3` [20-Methylcholanthrene], the “Carcinogenicity, Lit.” value is “+”.

Take `Nc1ccc2ccccc2c1S(=O)(=O)O` [2-Aminonaphthalene-1-sulphonic acid]: the “Carcinogenicity, Lit.” value was “-”.

`ClCOCCl` [Bis(Chloromethyl)ether]: the “Carcinogenicity, Lit.” value is listed as “+”.

Turning to `c1ccc2cc(Nc3ccc(Nc4ccc5ccccc5c4)cc3)ccc2c1` [N,N'-Bis(2-naphthyl)-p-phenylenediamine], the “Carcinogenicity, Lit.” value is recorded as “-”.

Consider `Nc1ccc2ccc3cccc4ccc1c2c34` [3-Aminopyrene], for which the “Carcinogenicity, Lit.” value is listed as “+”.

For `O=C(O)CCCc1ccc(N(CCCl)CCCl)cc1` [Chlorambucil], the “Carcinogenicity, Lit.” value is listed as “+”.

On to `CN(C)P(=O)(N(C)C)N(C)C` [Hexamethylphosphoramide], for which the “Carcinogenicity, Lit.” value is “+”.

Turning to `Clc1ccc(C(c2ccc(Cl)cc2)C(Cl)(Cl)Cl)cc1` [D.D.T.], the “Carcinogenicity, Lit.” value is given as “-”.

On to `O=C(O)COc1ccc(Cl)cc1Cl` [2,4-Dichlorophenoxyacetate], for which the “Carcinogenicity, Lit.” value was “-”.

`Oc1cccc2ccccc12` [1-Naphthol]: the “Carcinogenicity, Lit.” value was “-”.

On to `Nc1ccc(Cc2ccc(N)c(Cl)c2)cc1Cl`, for which the “Carcinogenicity, Lit.” value is listed as “+”.

As for `CN(C)c1ccc(N=Nc2ccccc2)cc1` [4-Dimethylaminoazobenzene], the “Carcinogenicity, Lit.” value is listed as “+”.

As to Cycasin acetate, the “Carcinogenicity, Lit.” value is listed as “+”.

Turning to `CC/C(=C(/CC)c1ccc(O)cc1)c1ccc(O)cc1` [Diethylstilboestrol], the “Carcinogenicity, Lit.” value is on record as “+”.

For the compound `c1ccc2cc3c(ccc4ccccc43)cc2c1` [1,2-Benzanthracene], the “Carcinogenicity, Lit.” value is on record as “+”.

`c1ccc(Nc2ccc3ccccc3c2)cc1` [N-phenyl-2-naphthylamine]: the “Carcinogenicity, Lit.” value is given as “-”.

For the compound `Nc1cc2c3ccccc3ccc2c2ccccc12` [6-Aminochrysene], the “Carcinogenicity, Lit.” value was “+”.

As for `c1ccc2c(c1)cc1ccc3cc4ccccc4c4ccc2c1c34` [3,4,9,10-Dibenzpyrene], the “Carcinogenicity, Lit.” value is reported as “+”.

Turning to `Nc1ccc(-c2ccccc2)cc1` [4-Aminobiphenyl], the “Carcinogenicity, Lit.” value was “+”.

Turning to `O=[N+]([O-])c1ccccc1-c1ccccc1` [2-Nitrobiphenyl], the “Carcinogenicity, Lit.” value is given as “+”.

Turning to `Nc1ccccc1-c1ccccc1` [2-Aminobiphenyl], the “Carcinogenicity, Lit.” value is reported as “+”.

As to Morgan's base, the “Carcinogenicity, Lit.” value was “+”.

For `Nc1ccc2c(c1)Cc1cc(N)ccc1-2` [2,7-Diaminofluorene], the “Carcinogenicity, Lit.” value is “+”.

As to `c1ccc2ccccc2c1` [Naphthalene], the “Carcinogenicity, Lit.” value is on record as “-”.

In the case of `Nc1ccccc1` [Aniline], the “Carcinogenicity, Lit.” value is “-”.

In the case of `C1CCC(NC2CCCCC2)CC1` [Dicyclohexylamine], the “Carcinogenicity, Lit.” value is “-”.

Consider `COc1ccc(N)cc1` [p-Anisidine], for which the “Carcinogenicity, Lit.” value is reported as “-”.

In the case of `Nc1ccc(N=Nc2ccccc2)cc1` [4-Aminoazobenzene], the “Carcinogenicity, Lit.” value was “+”.

For `c1cc2cccc3c4cccc5cccc(c(c1)c23)c54` [Perylene], the “Carcinogenicity, Lit.” value is given as “-”.

For the compound `c1ccc2[nH]cnc2c1` [Benzimidazole], the “Carcinogenicity, Lit.” value was “-”.

Regarding `CC(=O)Nc1cccc2c1-c1ccccc1C2` [4-Acetylaminofluorene], the “Carcinogenicity, Lit.” value is “-”.

`C=CCc1ccc2c(c1)OCO2` [Safrole]: the “Carcinogenicity, Lit.” value was “+”.

`c1ccc2c(c1)ccc1cc3ccc4ccccc4c3nc12` [3,4,5,6-Dibenzacridine]: the “Carcinogenicity, Lit.” value is listed as “+”.

`Nc1ccc(-c2ccc(N)cc2)cc1` [Benzidine]: the “Carcinogenicity, Lit.” value was “+”.

With `Nc1ccc2c(ccc3c4ccccc4ccc23)c1` [2-Aminochrysene], the “Carcinogenicity, Lit.” value is recorded as “+”.

Take `CC(=O)Nc1ccc2c(c1)Cc1ccccc1-2` [2-Acetylaminofluorene]: the “Carcinogenicity, Lit.” value is “+”.

For the compound Croton oil, the “Carcinogenicity, Lit.” value is “+”.

Regarding `O=C1c2ccccc2C(=O)c2ccccc21` [Anthraquinone], the “Carcinogenicity, Lit.” value is recorded as “-”.

Take `O=C(O)c1ccccc1` [Benzoic acid]: the “Carcinogenicity, Lit.” value is reported as “-”.

For the compound `CCOS(C)(=O)=O` [Ethyl methanesulphonate], the “Carcinogenicity, Lit.” value was “+”.

Consider `O=S1(=O)CCCCO1` [Butanesultone], for which the “Carcinogenicity, Lit.” value is on record as “+”.

As for `Cc1cc(-c2ccc(N)c(C)c2)ccc1N` [3,3'-Dimethylbenzidine], the “Carcinogenicity, Lit.” value is “+”.

Consider `NC1CCCCC1` [Cyclohexylamine], for which the “Carcinogenicity, Lit.” value is on record as “-”.

Turning to `COc1cc(-c2ccc(N)c(OC)c2)ccc1N` [3,3'-Dimethoxybenzidine], the “Carcinogenicity, Lit.” value is “+”.

`c1ccc2c(c1)cc1ccc3cccc4ccc2c1c34` [3,4-Benzpyrene]: the “Carcinogenicity, Lit.” value is recorded as “+”.

In the case of `c1ccc(-c2ccccc2)cc1` [Biphenyl], the “Carcinogenicity, Lit.” value is on record as “-”.

Regarding `Cc1c2ccccc2c(C)c2ccccc12` [9,10-Dimeuthylanthracene], the “Carcinogenicity, Lit.” value was “+”.

`CCN(CC)N=O` [Diethylnitrosamine]: the “Carcinogenicity, Lit.” value was “+”.

With `Nc1ccc(-c2ccc(N)c(Cl)c2)cc1Cl` [3,3'-Dichlorobenzidine], the “Carcinogenicity, Lit.” value is listed as “+”.

The test system of the next series is tester cells of the transformation assay.
Details: not given
With `C=CCl` [Vinyl chloride], the “Toxicity in the assay” value is listed as “No toxicity observe(d”.
